{"source": "patent US20260355171A1", "about": "“INHIBITORS AND USES THEREFOR” (priority 2022, published 2026)", "key": {"primary neurons": {"system": "primary neurons", "test": "Neuronal cell death in the presence of NMDA", "assay_type": "cell-based, mouse", "conditions": "1 or 10 μM compound, 100 μM NMDA", "procedure": "Primary neurons were treated with 0.4, 1, 2, 10 or 50 μM of compound 2 or compound 22 (prepared according to Example 2). NSP5 was added to primary neurons at DIV11, and compound 2 or 22 was added 48 hours later. Cells were treated with propidium iodide 48 hours after compound addition. Cells were washed with PBS and fixed with 4% PFA. Cells were then washed and stained with DAPI. Images of cells were taken with ZEISS Axioscan 7 microscope slide scanner. Cell death was determined by Image J analysis, counting the death cell (red, PI)) vs all cells (blue, DAPI).\nOne hour after compound addition (1 or 10 μM of compound 2 or compound 22) neurons were treated with a cytotoxic agent (100 μM N-methyl-D-aspartate (NMDA), 100 μM H2O2 or 5 μM staurosporine). One hour after treatment with the cytotoxic agent, the media was replaced with fresh media and the neurons were incubated for 24 hours. A final concentration of 1 μM propidium iodide (PI) was added into the well and incubated for 5 mins. Cells were washed with phosphate-buffered saline (PBS) and then fixed with 4% PFA. Cells were then washed and stained with DAPI, and cell death determined as described above."}, "[1]": {"test": "Tissue (brain/lung) exposure, IP administration", "assay_type": "in vivo, mouse", "conditions": "for Unbound Brain Parenchyma Concentration, individual / Unbound Plasma Concentration, individual / B:P ratio (brain:plasma), individual / L:P ratio, individual / Unbound B:P ratio (Kp,uu), individual / concentration / Kp at 0.5 h / concentration at 0.5 h / Kp uu at 0.5 h / Kp at 4 h / concentration at 4 h / Kp uu at 4 h / concentration at 24 h: 10 mg/kg; for Kp at 0.5 h / concentration at 0.5 h / Kp uu at 0.5 h / Kp at 4 h / concentration at 4 h / Kp uu at 4 h / concentration at 24 h: mouse, ip", "procedure": "For the tissue collection, at 0.5, 4 and 24 h following IP administration, mice were anaesthetised (using gaseous isoflurane). Immediately after the submandibular bleed, mice were killed via cervical dislocation and the whole brain and lung were removed from each carcase. All these tissues were blotted to remove excess blood, placed into pre-weighed polypropylene vials and weighed. Tissue samples were snap frozen in dry ice and subsequently stored frozen at −80 °C until analysis. A summary of the bioanalytical method is included in Table 5.\nTissue: Pre-weighed tissue samples (brain and lung) were homogenised using a gentleMACS™ Octo Dissociator (Miltenyi Biotec, Macquarie Park, Australia) in buffer containing an EDTA/potassium fluoride solution (0.1 M/4 mg/mL) as a stabilisation cocktail to minimise the potential for ex vivo degradation (3 mL cocktail/g tissue). The tissue homogenate was briefly centrifuged (RCF=79×g) for 10 seconds to separate the foam layer before transferring an aliquot of the tissue homogenate (200 μL) to a fresh Eppendorf tube for sample extraction. Calibration standards were prepared by spiking blank brain and lung homogenate (200 μL) with the solution standards (10 μL) and the internal standard (10 μL). Study samples (for all tissue types) were similarly prepared, except that acetonitrile (10 μL) was added instead of solution standards to maintain the same volume. Protein precipitation was carried out by the addition of a 3-fold volume of acetonitrile, followed by vortex mixing and centrifugation (RCF=9391×g) for 3 min to recover the supernatant for analysis.\nThe concentration of compound 22 in brain or lung parenchyma was calculated on the basis of the measured concentration in brain or lung homogenate, after correcting for the contribution of compound contained within the vascular space of brain or lung samples as follows:\nCtissue=Ctissue homogentate−Ctissue vasculature where Ctissue vasculature=Cplasma×Vp • Ctissue=concentration of compound in brain or lung parenchyma (μM) • Ctissue homogenate=concentration of compound in brain or lung homogenate (μM) • Ctissue vasculature=concentration of compound in brain or lung vasculature (μM) • Cplasma=concentration of compound in plasma (μM)\nVp=brain plasma volume (0.017 mL/g for male C57BL/6 mice; Nicolazzo et al. (2010), Clinical and Experimental Pharmacology and Physiology, 37: 647-649) or lung plasma volume (0.16 mL/g of tissue, Boswell et al. (2014), Molecular Pharmaceutics, 11: 1591-1598)\nConcentrations in brain or lung parenchyma were converted from units of ng/g to μM assuming a specific gravity of 1.\nFor each mouse, the tissue (brain or lung)-to-plasma concentration ratio (based on total concentrations in each matrix) was calculated as: […]\nFor brain uptake, the unbound brain-to-plasma partition coefficient (based on unbound concentrations in each matrix) was calculated as: […]"}, "[2]": {"conditions": "0.5 h, IP 10 mg/kg, individual mice"}, "[3]": {"conditions": "0.5 h, IP 10 mg/kg, individual mice, 30 min"}, "[4]": {"conditions": "4.0 h, IP 10 mg/kg, individual mice"}, "[5]": {"conditions": "4.0 h, IP 10 mg/kg, individual mice, 240 min"}}, "note": "Where “and” joins values, the source holds several entries; their conditions need not be identical. Identical values can stand only once. Like-named read-outs stand apart in the source and are kept apart here."}
{"compound": "NC(=O)C1CCN(c2ncccc2CNCc2cccc3[nH]ccc23)CC1", "note": "[Compound 22]", "values": [{"measurement": "Protection from NMDA-induced neurotoxicity", "setting": "primary neurons", "value": "did not protect"}, {"measurement": "Unbound Brain Parenchyma Concentration, individual", "setting": "[1]; [2]", "value": "0.160 µM and 0.138 µM and 0.169 µM"}, {"measurement": "Unbound Plasma Concentration, individual", "setting": "[1]; [2]", "value": "1050 nM and 704 nM and 841 nM"}, {"measurement": "B:P ratio (brain:plasma), individual", "setting": "[1]; [3]", "value": 0.23}, {"measurement": "L:P ratio, individual", "setting": "[1]; [3]", "value": "2.8 and 2.6"}, {"measurement": "Unbound B:P ratio (Kp,uu), individual", "setting": "[1]; [3]", "value": 0.20}, {"measurement": "concentration", "setting": "[1]; 0.5 h, IP 10 mg/kg, individual mice, 30 min, read-out: Total Brain Parenchyma Concentration, individual", "value": 291, "unit": "nM"}, {"measurement": "concentration", "setting": "[1]; 0.5 h, IP 10 mg/kg, individual mice, 30 min, read-out: Total Lung Parenchyma Concentration, individual", "value": "3560 nM and 4000 nM"}, {"measurement": "concentration", "setting": "[1]; 0.5 h, IP 10 mg/kg, individual mice, 30 min, read-out: Total Plasma Concentration, individual", "value": "1290 nM and 1540 nM"}, {"measurement": "Unbound Brain Parenchyma Concentration, mean", "setting": "[1]; 0.5 h, IP 10 mg/kg, mean", "value": 0.155, "unit": "µM"}, {"measurement": "Unbound Plasma Concentration, mean", "setting": "[1]; 0.5 h, IP 10 mg/kg, mean", "value": 866, "unit": "nM"}, {"measurement": "Unbound Brain Parenchyma Concentration, individual", "setting": "[1]; [4]", "value": "0.0292 µM and 0.0285 µM"}, {"measurement": "Unbound Plasma Concentration, individual", "setting": "[1]; [4]", "value": "4.3 nM and 3.3 nM"}, {"measurement": "B:P ratio (brain:plasma), individual", "setting": "[1]; [5]", "value": 9.91}, {"measurement": "L:P ratio, individual", "setting": "[1]; [5]", "value": 68.6}, {"measurement": "Unbound B:P ratio (Kp,uu), individual", "setting": "[1]; [5]", "value": 8.59}, {"measurement": "concentration", "setting": "[1]; 4.0 h, IP 10 mg/kg, individual mice, 240 min, read-out: Total Brain Parenchyma Concentration, individual", "value": 60.1, "unit": "nM"}, {"measurement": "concentration", "setting": "[1]; 4.0 h, IP 10 mg/kg, individual mice, 240 min, read-out: Total Lung Parenchyma Concentration, individual", "value": 416, "unit": "nM"}, {"measurement": "concentration", "setting": "[1]; 4.0 h, IP 10 mg/kg, individual mice, 240 min, read-out: Total Plasma Concentration, individual", "value": 6.1, "unit": "nM"}, {"measurement": "Unbound Brain Parenchyma Concentration, mean", "setting": "[1]; 4.0 h, IP 10 mg/kg, mean", "value": 0.0288, "unit": "µM"}, {"measurement": "Unbound Plasma Concentration, mean", "setting": "[1]; 4.0 h, IP 10 mg/kg, mean", "value": 3.8, "unit": "nM"}, {"measurement": "Unbound Brain Parenchyma Concentration, individual", "setting": "[1]; 24 h, IP 10 mg/kg, individual mice", "value": "0.0060 µM and 0.0005 µM"}, {"measurement": "concentration", "setting": "[1]; 24 h, IP 10 mg/kg, individual mice, 1440 min, read-out: Total Lung Parenchyma Concentration, individual", "value": "2.5 nM and 1.6 nM and 0.7 nM"}, {"measurement": "Apparent tissue-to-plasma ratio (B:P or L:P) at 4 h versus 0.5 h", "setting": "[1]; IP 10 mg/kg", "value": "substantially higher than that at 0.5 h"}, {"measurement": "Duration of measurable concentrations in brain", "setting": "[1]; IP 10 mg/kg", "value": "≤ 4", "unit": "h"}, {"measurement": "Duration of measurable concentrations in lung", "setting": "[1]; IP 10 mg/kg", "value": "up to 24 hours"}, {"measurement": "Unbound Brain Parenchyma Concentration, mean", "setting": "[1]; IP 10 mg/kg, mean", "value": 0.0033, "unit": "µM"}, {"measurement": "Kp at 0.5 h", "setting": "[1]; brain, 0.5 h, individual mice, read-out: B:P ratio (brain:plasma), individual", "value": 0.18}, {"measurement": "concentration at 0.5 h", "setting": "[1]; brain, 0.5 h, individual mice, read-out: Total Brain Parenchyma Concentration, individual", "value": 337, "unit": "nM"}, {"measurement": "Kp uu at 0.5 h", "setting": "[1]; brain, 0.5 h, individual mice, read-out: Unbound B:P ratio (Kp,uu), individual", "value": 0.15}, {"measurement": "Kp at 0.5 h", "setting": "[1]; brain, 0.5 h, mean, read-out: B:P ratio (brain:plasma), mean", "value": 0.21}, {"measurement": "concentration at 0.5 h", "setting": "[1]; brain, 0.5 h, mean, read-out: Total Brain Parenchyma Concentration, mean", "value": 328, "unit": "nM"}, {"measurement": "Kp uu at 0.5 h", "setting": "[1]; brain, 0.5 h, mean, read-out: Unbound B:P ratio (Kp,uu), mean", "value": 0.18}, {"measurement": "Kp at 4 h", "setting": "[1]; brain, 4.0 h, individual mice, read-out: B:P ratio (brain:plasma), individual", "value": 7.9}, {"measurement": "concentration at 4 h", "setting": "[1]; brain, 4.0 h, individual mice, read-out: Total Brain Parenchyma Concentration, individual", "value": 61.6, "unit": "nM"}, {"measurement": "Kp uu at 4 h", "setting": "[1]; brain, 4.0 h, individual mice, read-out: Unbound B:P ratio (Kp,uu), individual", "value": 6.84}, {"measurement": "concentration at 4 h", "setting": "[1]; brain, 4.0 h, mean, mouse 16 excluded, read-out: Total Brain Parenchyma Concentration, mean", "value": 60.9, "unit": "nM"}, {"measurement": "Kp at 4 h", "setting": "[1]; brain, 4.0 h, mean, read-out: B:P ratio (brain:plasma), mean", "value": 8.9}, {"measurement": "Kp uu at 4 h", "setting": "[1]; brain, 4.0 h, mean, read-out: Unbound B:P ratio (Kp,uu), mean", "value": 7.72}, {"measurement": "concentration at 24 h", "setting": "[1]; brain, 24 h, mean, read-out: Total Brain Parenchyma Concentration, mean", "value": 6.9, "unit": "nM"}, {"measurement": "Kp at 0.5 h", "setting": "[1]; lung, 0.5 h, individual mice, read-out: L:P ratio, individual", "value": 2}, {"measurement": "concentration at 0.5 h", "setting": "[1]; lung, 0.5 h, individual mice, read-out: Total Lung Parenchyma Concentration, individual", "value": 3830, "unit": "nM"}, {"measurement": "Kp at 0.5 h", "setting": "[1]; lung, 0.5 h, mean, read-out: L:P ratio, mean", "value": 2.5}, {"measurement": "concentration at 0.5 h", "setting": "[1]; lung, 0.5 h, mean, read-out: Total Lung Parenchyma Concentration, mean", "value": 3800, "unit": "nM"}, {"measurement": "Kp at 4 h", "setting": "[1]; lung, 4.0 h, individual mice, read-out: L:P ratio, individual", "value": 45.7}, {"measurement": "concentration at 4 h", "setting": "[1]; lung, 4.0 h, individual mice, read-out: Total Lung Parenchyma Concentration, individual", "value": 356, "unit": "nM"}, {"measurement": "concentration at 4 h", "setting": "[1]; lung, 4.0 h, mean, mouse 16 excluded, read-out: Total Lung Parenchyma Concentration, mean", "value": 386, "unit": "nM"}, {"measurement": "Kp at 4 h", "setting": "[1]; lung, 4.0 h, mean, read-out: L:P ratio, mean", "value": 57.1}, {"measurement": "concentration at 24 h", "setting": "[1]; lung, 24 h, mean, read-out: Total Lung Parenchyma Concentration, mean", "value": 2.1, "unit": "nM"}, {"measurement": "concentration at 0.5 h", "setting": "[1]; plasma, 0.5 h, individual mice, read-out: Total Plasma Concentration, individual", "value": 1920, "unit": "nM"}, {"measurement": "concentration at 0.5 h", "setting": "[1]; plasma, 0.5 h, mean, read-out: Total Plasma Concentration, mean", "value": 1580, "unit": "nM"}, {"measurement": "concentration at 4 h", "setting": "[1]; plasma, 4.0 h, individual mice, read-out: Total Plasma Concentration, individual", "value": 7.8, "unit": "nM"}, {"measurement": "concentration at 4 h", "setting": "[1]; plasma, 4.0 h, mean, mouse 16 excluded, read-out: Total Plasma Concentration, mean", "value": 6.9, "unit": "nM"}]}
